In patent US10004701B2, “Methods and compositions for treating infection” (UNIVERSITY OF ROCHESTER, priority 2012, dated 2018):
Where a name gives a salt, the structure may show the parent alone. Read-outs that look alike come from different tables or passages of the source.

Assays:
Assay in all cases: AK assay 384-well format, Prestwick library screening
[1] = tested on: E. faecium; assay type: cell-based, Enterococcus faecium; details: 50 μM final drug concentration; for fold induction at 50 µM: Enterococcus faecium, 3 h
[2] = tested on: S. aureus strain USA300-0114; assay type: cell-based, Staphylococcus aureus; details: 50 μM final drug concentration; for fold induction at 50 µM: Staphylococcus aureus, USA300, 3 h
[3] = tested on: K. pneumoniae; assay type: cell-based, Klebsiella pneumoniae; details: 50 μM final drug concentration; for fold induction at 50 µM: Klebsiella pneumoniae, 3 h
[4] = tested on: A. baumannii strain 98-37-09; assay type: cell-based, Acinetobacter baumannii; details: 50 μM final drug concentration; for fold induction at 50 µM: Acinetobacter baumannii, 983709, 3 h
[5] = tested on: P. aeruginosa; assay type: cell-based, Pseudomonas aeruginosa; details: 50 μM final drug concentration; for fold induction at 50 µM: Pseudomonas aeruginosa, 3 h
[6] = tested on: E. cloacae; assay type: cell-based, Enterobacter cloacae; details: for fold induction at 50 µM: Enterobacter cloacae, 3 h
[7] = tested on: E. coli; assay type: cell-based, Escherichia coli; details: 50 μM final drug concentration; for fold induction at 50 µM: Escherichia coli, 3 h
[8] = planktonic E. faecium, positive cutoff 3-fold increase, read-out: AK-based Prestwick library screening result, E. faecium (fold increase in extracellular AK activity)
[9] = planktonic S. aureus, positive cutoff 3-fold increase, read-out: AK-based Prestwick library screening result, S. aureus (fold increase in extracellular AK activity)
[10] = planktonic K. pneumoniae, positive cutoff 3-fold increase, read-out: AK-based Prestwick library screening result, K. pneumoniae (fold increase in extracellular AK activity)
[11] = planktonic A. baumannii, positive cutoff 3-fold increase, read-out: AK-based Prestwick library screening result, A. baumannii (fold increase in extracellular AK activity)
[12] = planktonic P. aeruginosa, positive cutoff 3-fold increase, read-out: AK-based Prestwick library screening result, P. aeruginosa (fold increase in extracellular AK activity)
[13] = planktonic E. cloacae, 50 μM final drug concentration, positive cutoff 3-fold increase, read-out: AK-based Prestwick library screening result, E. cloacae (fold increase in extracellular AK activity)
[14] = planktonic E. coli, positive cutoff 3-fold increase, read-out: AK-based Prestwick library screening result, E. coli (fold increase in extracellular AK activity)
[15] = 384-well format, cutoff for positive-scoring molecules 3-fold increase
[16] = 50 μM final drug concentration, 384-well format, cutoff for positive-scoring molecules 3-fold increase
[17] = 384-well format, cutoff for positive-scoring molecules 3-fold increase, read-out: AK-based Prestwick Library Screening Results, E. faecium (increase in extracellular AK activity)
[18] = 384-well format, cutoff for positive-scoring molecules 3-fold increase, read-out: AK-based Prestwick Library Screening Results, S. aureus (increase in extracellular AK activity)
[19] = 384-well format, cutoff for positive-scoring molecules 3-fold increase, read-out: AK-based Prestwick Library Screening Results, K. pneumoniae (increase in extracellular AK activity)
[20] = 384-well format, cutoff for positive-scoring molecules 3-fold increase, read-out: AK-based Prestwick Library Screening Results, A. baumannii (increase in extracellular AK activity)
[21] = 384-well format, cutoff for positive-scoring molecules 3-fold increase, read-out: AK-based Prestwick Library Screening Results, P. aeruginosa (increase in extracellular AK activity)
[22] = 50 μM final drug concentration, 384-well format, cutoff for positive-scoring molecules 3-fold increase, read-out: AK-based Prestwick Library Screening Results, E. cloacae (increase in extracellular AK activity)
[23] = 384-well format, cutoff for positive-scoring molecules 3-fold increase, read-out: AK-based Prestwick Library Screening Results, E. coli (increase in extracellular AK activity)
[24] = planktonic, cutoff for positive 3-fold increase
[25] = cutoff for positive-scoring molecules 3-fold increase

O=C(O)[C@]1(O)C[C@@H](O)[C@@H](O)[C@H](O)C1 [Quinic acid]
fold induction at 50 µM [1, 8]: 1 | fold induction at 50 µM [2, 9]: 1.2 | fold induction at 50 µM [3, 10]: 1.3 | fold induction at 50 µM [4, 11]: 1.4 | fold induction at 50 µM [5, 12]: 1.1 | fold induction at 50 µM [6, 13]: 1.2 | fold induction at 50 µM [7, 14]: 1.2

Cl.N=C(N=C(N)N)N1CCOCC1 [Moroxidine hydrochloride]
AK-based Prestwick Library Screening Results, E. faecium (increase in extracellular AK activity) [1, 15]: 0.8 | AK-based Prestwick Library Screening Results, S. aureus (increase in extracellular AK activity) [2, 15]: 0.4 | AK-based Prestwick Library Screening Results, K. pneumoniae (increase in extracellular AK activity) [3, 15]: 0.4 | AK-based Prestwick Library Screening Results, A. baumannii (increase in extracellular AK activity) [4, 15]: 0.4 | AK-based Prestwick Library Screening Results, P. aeruginosa (increase in extracellular AK activity) [5, 15]: 0.3 | AK-based Prestwick Library Screening Results, E. cloacae (increase in extracellular AK activity) [6, 16]: 0.3 | AK-based Prestwick Library Screening Results, E. coli (increase in extracellular AK activity) [7, 15]: 0.5

CC(=O)S[C@@H]1CC2=CC(=O)CC[C@]2(C)[C@H]2CC[C@@]3(C)[C@@H](CC[C@@]34CCC(=O)O4)[C@H]12 [Spironolactone]
fold induction at 50 µM [1, 17]: 1 | fold induction at 50 µM [2, 18]: 1.2 | fold induction at 50 µM [3, 19]: 1 | fold induction at 50 µM [4, 20]: 1.1 | fold induction at 50 µM [5, 21]: 1 | fold induction at 50 µM [6, 22]: 1.3 | fold induction at 50 µM [7, 23]: 1.4

CS(=N)(=O)CC[C@H](N)C(=O)O (stereo partly shown) [Methionine sulfoximine (L)]
AK-based Prestwick Library Screening Results, E. faecium (fold increase in extracellular AK activity) [1, 24]: 1.0 | AK-based Prestwick Library Screening Results, S. aureus (fold increase in extracellular AK activity) [2, 24]: 1.1 | AK-based Prestwick Library Screening Results, K. pneumoniae (fold increase in extracellular AK activity) [3, 24]: 0.9 | AK-based Prestwick Library Screening Results, A. baumannii (fold increase in extracellular AK activity) [4, 24]: 1.0 | AK-based Prestwick Library Screening Results, P. aeruginosa (fold increase in extracellular AK activity) [5, 24]: 1.2 | AK-based Prestwick Library Screening Results, E. cloacae (fold increase in extracellular AK activity) ([6]; 50 μM final drug concentration, planktonic, cutoff for positive 3-fold increase): 1.5 | AK-based Prestwick Library Screening Results, E. coli (fold increase in extracellular AK activity) [7, 24]: 1.3

Cn1c(=O)c2c(ncn2CCO)n(C)c1=O [Etofylline]
fold induction at 50 µM [1, 17]: 1 | fold induction at 50 µM [2, 18]: 0.8 | fold induction at 50 µM [3, 19]: 0.6 | fold induction at 50 µM [4, 20]: 0.8 | fold induction at 50 µM [5, 21]: 0.7 | fold induction at 50 µM [6, 22]: 0.9 | fold induction at 50 µM [7, 23]: 0.8

C[C@@H]1NC(=O)NC1=O [Methylhydantoin-5-(L)]
AK-based Prestwick Library Screening Results, E. faecium (fold increase in extracellular AK activity) [1, 25]: 1.1 | AK-based Prestwick Library Screening Results, S. aureus (fold increase in extracellular AK activity) [2, 25]: 1.3 | AK-based Prestwick Library Screening Results, K. pneumoniae (fold increase in extracellular AK activity) [3, 25]: 1.0 | AK-based Prestwick Library Screening Results, A. baumannii (fold increase in extracellular AK activity) [4, 25]: 1.0 | AK-based Prestwick Library Screening Results, P. aeruginosa (fold increase in extracellular AK activity) [5, 25]: 1.1 | AK-based Prestwick Library Screening Results, E. cloacae (fold increase in extracellular AK activity) ([6]; 50 μM final drug concentration, cutoff for positive-scoring molecules 3-fold increase): 2.0 | AK-based Prestwick Library Screening Results, E. coli (fold increase in extracellular AK activity) ([7]; […]): 1.4

Nc1ccn([C@H]2CC[C@@H](CO)O2)c(=O)n1 [Zalcitabine]
fold induction at 50 µM [1, 8]: 1.1 | fold induction at 50 µM [2, 9]: 1.1 | fold induction at 50 µM [3, 10]: 1.1 | fold induction at 50 µM [4, 11]: 1.2 | fold induction at 50 µM [5, 12]: 1 | fold induction at 50 µM [6, 13]: 1.8 | fold induction at 50 µM [7, 14]: 1.3

O.O=C(O)[C@@H]1[C@H]2C[C@H]3c4[nH]c5ccccc5c4CCN3C[C@@H]2CC[C@@H]1O [Yohimbinic acid monohydrate]
AK-based Prestwick Library Screening Results, E. faecium (increase in extracellular AK activity) ([1]; planktonic E. faecium, […]): 0.9 | AK-based Prestwick Library Screening Results, S. aureus (increase in extracellular AK activity) ([2]; planktonic S. aureus, […]): 0.7 | AK-based Prestwick Library Screening Results, K. pneumoniae (increase in extracellular AK activity) ([3]; planktonic K. pneumoniae, […]): 0.7 | AK-based Prestwick Library Screening Results, A. baumannii (increase in extracellular AK activity) ([4]; planktonic A. baumannii, […]): 0.8 | AK-based Prestwick Library Screening Results, P. aeruginosa (increase in extracellular AK activity) ([5]; planktonic P. aeruginosa, […]): 0.9 | AK-based Prestwick Library Screening Results, E. cloacae (increase in extracellular AK activity) ([6]; planktonic E. cloacae, 50 μM final drug concentration, […]): 0.9 | AK-based Prestwick Library Screening Results, E. coli (increase in extracellular AK activity) ([7]; planktonic E. coli, […]): 0.9

CO[C@@H]1[C@@H](OC(N)=O)[C@@H](O)[C@H](Oc2ccc3c(O)c(NC(=O)c4ccc(O)c(CC=C(C)C)c4)c(=O)oc3c2C)OC1(C)C [Novobiocin sodium salt]
fold induction at 50 µM ([1]; planktonic, cutoff for positive-scoring molecules 3-fold increase, read-out: AK-based Prestwick Library Screening Results, E. faecium (fold increase in extracellular AK activity)): 1.5 | fold induction at 50 µM ([2]; planktonic, cutoff for positive-scoring molecules 3-fold increase, read-out: AK-based Prestwick Library Screening Results, S. aureus (fold increase in extracellular AK activity)): 4.5 | fold induction at 50 µM ([3]; planktonic, cutoff for positive-scoring molecules 3-fold increase, read-out: AK-based Prestwick Library Screening Results, K. pneumoniae (fold increase in extracellular AK activity)): 0.7 | fold induction at 50 µM ([4]; planktonic, cutoff for positive-scoring molecules 3-fold increase, read-out: AK-based Prestwick Library Screening Results, A. baumannii (fold increase in extracellular AK activity)): 1.1 | fold induction at 50 µM ([5]; planktonic, cutoff for positive-scoring molecules 3-fold increase, read-out: AK-based Prestwick Library Screening Results, P. aeruginosa (fold increase in extracellular AK activity)): 1 | fold induction at 50 µM ([6]; 50 μM final drug concentration, planktonic, cutoff for positive-scoring molecules 3-fold increase, read-out: AK-based Prestwick Library Screening Results, E. cloacae (fold increase in extracellular AK activity)): 1.6 | fold induction at 50 µM ([7]; planktonic, cutoff for positive-scoring molecules 3-fold increase, read-out: AK-based Prestwick Library Screening Results, E. coli (fold increase in extracellular AK activity)): 3.2

OCCN1CCN(CC/C=C2/c3ccccc3Sc3ccc(Cl)cc32)CC1 [Zuclopenthixol hydrochloride]
fold induction at 50 µM [1, 8]: 1 | fold induction at 50 µM [2, 9]: 0.7 | fold induction at 50 µM [3, 10]: 1 | fold induction at 50 µM [4, 11]: 1.9 | fold induction at 50 µM [5, 12]: 0.9 | fold induction at 50 µM [6, 13]: 1.3 | fold induction at 50 µM [7, 14]: 1.2

CC(=O)[N-]S(=O)(=O)c1ccc(N)cc1.O.[Na+] [Sulfacetamide sodic hydrate]
AK-based Prestwick Library Screening Results, E. faecium (increase in extracellular AK activity) [1, 15]: 0.9 | AK-based Prestwick Library Screening Results, S. aureus (increase in extracellular AK activity) [2, 15]: 0.7 | AK-based Prestwick Library Screening Results, K. pneumoniae (increase in extracellular AK activity) [3, 15]: 0.5 | AK-based Prestwick Library Screening Results, A. baumannii (increase in extracellular AK activity) [4, 15]: 2.2 | AK-based Prestwick Library Screening Results, P. aeruginosa (increase in extracellular AK activity) [5, 15]: 0.5 | AK-based Prestwick Library Screening Results, E. cloacae (increase in extracellular AK activity) [6, 16]: 0.7 | AK-based Prestwick Library Screening Results, E. coli (increase in extracellular AK activity) [7, 15]: 0.6

CCCSc1ccc2nc(NC(=O)OC)[nH]c2c1 [Albendazole]
fold induction at 50 µM ([1]; 384-well format, […], read-out: AK-based Prestwick Library Screening Results, E. faecium (increase in extracellular AK activity)): 0.5 | fold induction at 50 µM ([2]; 384-well format, […], read-out: AK-based Prestwick Library Screening Results, S. aureus (increase in extracellular AK activity)): 0.2 | fold induction at 50 µM ([3]; 384-well format, […], read-out: AK-based Prestwick Library Screening Results, K. pneumoniae (increase in extracellular AK activity)): 0.3 | fold induction at 50 µM ([4]; 384-well format, […], read-out: AK-based Prestwick Library Screening Results, A. baumannii (increase in extracellular AK activity)): 0.3 | fold induction at 50 µM ([5]; 384-well format, […], read-out: AK-based Prestwick Library Screening Results, P. aeruginosa (increase in extracellular AK activity)): 0.3 | fold induction at 50 µM ([6]; read-out: AK-based Prestwick Library Screening Results, E. cloacae (increase in extracellular AK activity)): 0.4 | fold induction at 50 µM ([7]; 384-well format, […], read-out: AK-based Prestwick Library Screening Results, E. coli (increase in extracellular AK activity)): 0.3

CN(C)CCOC(C)(c1ccccc1)c1ccccn1 (stereo not shown) [Doxylamine succinate]
fold induction at 50 µM [1, 17]: 0.9 | fold induction at 50 µM [2, 18]: 0.7 | fold induction at 50 µM [3, 19]: 0.6 | fold induction at 50 µM [4, 20]: 0.8 | fold induction at 50 µM [5, 21]: 0.8 | fold induction at 50 µM [6, 22]: 1 | fold induction at 50 µM [7, 23]: 0.8
